Assay results: article PMC6286348, “Inhibitor binding mode and allosteric regulation of Na^+-glucose symporters” (Nature Communications, 2018)

Assays:
[1] = target: T1, hSGLT2 wild-type (Homo sapiens, UniProt P31639); assay: SGLT current measurement in oocytes, hSGLT2 wild-type (MAP17 co-injected); format: cell-based; design: expressed in transfected cells; host or cells: Xenopus laevis oocytes injected with hSGLT2 cRNA and MAP17 cRNA; details: 22 °C
T1 sequence (P31639 1-672): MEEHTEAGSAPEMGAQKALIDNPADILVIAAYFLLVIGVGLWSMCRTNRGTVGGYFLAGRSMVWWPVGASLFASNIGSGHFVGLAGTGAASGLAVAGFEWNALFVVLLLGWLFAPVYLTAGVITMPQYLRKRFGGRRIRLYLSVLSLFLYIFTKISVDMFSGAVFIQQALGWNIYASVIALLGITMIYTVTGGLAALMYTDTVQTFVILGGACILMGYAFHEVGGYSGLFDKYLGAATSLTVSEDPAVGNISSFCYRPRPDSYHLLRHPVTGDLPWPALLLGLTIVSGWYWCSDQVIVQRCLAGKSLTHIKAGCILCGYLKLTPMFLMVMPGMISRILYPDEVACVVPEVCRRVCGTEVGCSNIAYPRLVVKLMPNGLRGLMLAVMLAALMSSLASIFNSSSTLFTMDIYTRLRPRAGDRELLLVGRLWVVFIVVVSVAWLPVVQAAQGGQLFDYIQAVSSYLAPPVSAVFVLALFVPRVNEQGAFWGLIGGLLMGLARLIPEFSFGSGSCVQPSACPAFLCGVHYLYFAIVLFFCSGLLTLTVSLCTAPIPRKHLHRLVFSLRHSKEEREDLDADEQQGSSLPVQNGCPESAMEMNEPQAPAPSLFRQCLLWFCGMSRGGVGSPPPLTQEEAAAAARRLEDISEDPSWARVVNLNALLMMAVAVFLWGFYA
T1 sequence (Q13113 1-114 partner): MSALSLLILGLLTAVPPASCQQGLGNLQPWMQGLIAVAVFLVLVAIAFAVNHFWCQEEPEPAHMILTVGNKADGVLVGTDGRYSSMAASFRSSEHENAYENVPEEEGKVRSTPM
Protocol: (§1) Xenopus laevis (Nasco) oocytes (V–VI) were prepared as previously described[20] and injected with 50 nl of cRNA (1 μg/μl). […] Briefly, oocytes were incubated for 30 min in the presence of 50 μM αMDG (5 μM [^14C]αMDG) in a buffer containing (in mM) 100 NaCl, 2 KCl, 1 MgCl2, 1 CaCl2, and 10 N-(2-hydroxyethyl)piperazine-N′-(2-ethanesulfonic acid) (HEPES)/Tris (pH 7.5). After incubation, oocytes were rinsed thoroughly with ice-cold buffer containing (mM) 100 choline Cl^–, 2 KCl, 1 MgCl2, 1 CaCl2, and 10 HEPES/Tris (pH 7.5), individually lysed with 5% sodium dodecyl sulfate, and assayed for radioactivity.
(§2) Injected oocytes were incubated at 18 °C, and after 3–4 days, two electrode voltage clamp experiments were performed as previously described. Briefly, SGLT inward glucose currents were measured as a function of the external Na^+ (0–100 mM NaCl), sugar (0–100 mM αMDG), and inhibitors (0.001–100 μM). Steady-state and hSGLT1 capacitive currents were recorded using voltage steps from a holding voltage, Vh of −60 mV, to voltages in the range of −180 to +50 mV in 20 mV increments. The apparent affinity of αMDG, K0.5, was estimated from plots of the inward current as a function of the external αMDG concentration. Under our experimental conditions, K0.5 is a close approximation of the αMDG binding constant to the Na^+-bound outward conformation of SGLT. The apparent affinity for Na^+, K0.5, was estimated from plots of the αMDG inward current as a function of external Na^+ concentration. For hSGLT1 the interpretation of K0.5 is more complex owing to the presence of two Na^+ binding sites. In this case, the K0.5 is a lumped coefficient for Na^+ binding to the two sites in the outward-facing hSGLT1 conformation. […] The Na^+-to-αMDG stoichiometry was determined from the reversal potential measurements using the Gibbs free energy as previously described. The stoichiometry determinations were reinforced by estimates of αMDG and Na^+ Hill coefficients, and in some cases, by measurement of ^22Na and [^14C]αMDG uptakes under voltage clamp, [21].

[2] = target: T2, hSGLT2 A395T (Homo sapiens, UniProt P31639, A395T); assay: cell-based; details: poor expression; n = 4 oocytes
T2 construct: expressed in transfected cells; host or cells: Xenopus laevis oocytes injected with hSGLT2 A395T cRNA and MAP17 cRNA
Protocol: as §1, §2

[3] = target: T3, hSGLT1 T287C (Homo sapiens, UniProt P13866, T287C); design: method as in PMID 29087341; details: oocytes, 22 °C; cited from earlier work
T3 construct: expressed in transfected cells; host or cells: Xenopus laevis oocytes injected with cRNA
T3 sequence (P13866 1-664 T287C): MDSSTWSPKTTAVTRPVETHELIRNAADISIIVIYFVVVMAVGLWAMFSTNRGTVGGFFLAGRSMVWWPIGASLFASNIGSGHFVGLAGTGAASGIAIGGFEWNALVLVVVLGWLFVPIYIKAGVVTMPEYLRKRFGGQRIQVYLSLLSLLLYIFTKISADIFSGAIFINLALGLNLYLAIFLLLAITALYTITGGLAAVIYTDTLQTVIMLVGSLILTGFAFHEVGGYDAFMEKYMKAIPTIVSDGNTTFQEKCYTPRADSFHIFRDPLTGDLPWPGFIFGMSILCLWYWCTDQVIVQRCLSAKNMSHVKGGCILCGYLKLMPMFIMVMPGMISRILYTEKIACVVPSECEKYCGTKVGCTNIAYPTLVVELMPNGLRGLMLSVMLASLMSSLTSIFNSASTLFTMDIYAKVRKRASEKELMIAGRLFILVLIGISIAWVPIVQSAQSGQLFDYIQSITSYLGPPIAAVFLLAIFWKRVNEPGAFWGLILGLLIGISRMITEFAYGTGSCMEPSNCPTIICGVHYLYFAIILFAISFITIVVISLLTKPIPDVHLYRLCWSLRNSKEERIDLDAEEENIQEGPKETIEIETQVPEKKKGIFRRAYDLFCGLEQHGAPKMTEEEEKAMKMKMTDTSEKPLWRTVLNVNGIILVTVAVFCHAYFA

[4] = tested on: hSGLT1 S392A/C; design: method as in PMID 22159082; details: oocytes, 22 °C; cited from earlier work

T2 sequence (P31639 whole entry A395T, one chain of several): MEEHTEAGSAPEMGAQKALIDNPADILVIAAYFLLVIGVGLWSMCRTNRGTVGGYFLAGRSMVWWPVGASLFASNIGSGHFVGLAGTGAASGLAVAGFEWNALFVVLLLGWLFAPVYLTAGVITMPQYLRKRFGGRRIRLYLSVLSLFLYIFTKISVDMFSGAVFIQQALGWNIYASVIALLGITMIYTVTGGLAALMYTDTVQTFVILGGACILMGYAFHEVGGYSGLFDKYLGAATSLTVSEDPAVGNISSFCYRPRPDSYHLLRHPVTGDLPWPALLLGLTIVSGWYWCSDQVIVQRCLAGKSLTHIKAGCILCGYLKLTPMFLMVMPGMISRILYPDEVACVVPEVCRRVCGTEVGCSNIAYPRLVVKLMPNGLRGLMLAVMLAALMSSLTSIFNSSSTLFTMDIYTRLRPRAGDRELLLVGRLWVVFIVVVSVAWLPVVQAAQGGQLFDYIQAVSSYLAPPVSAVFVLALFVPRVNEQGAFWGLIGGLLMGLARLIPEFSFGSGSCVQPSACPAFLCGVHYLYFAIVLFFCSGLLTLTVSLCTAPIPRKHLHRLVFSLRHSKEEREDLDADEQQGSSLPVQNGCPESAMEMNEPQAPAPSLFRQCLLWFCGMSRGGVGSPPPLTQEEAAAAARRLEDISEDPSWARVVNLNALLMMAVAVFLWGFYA

For `[Na+]` [Na^+], the “K0.5 Na^+” value [1] is given as 22 ± 1 mM, the “K0.5 Na^+” value [2] is given as 30 ± 10 mM and the “K0.5 Na^+” value [3] is given as 6 ± 0.2[19] mM. For the same compound, the “K0.5 Na^+” value [4] was 122 ± 12[20] mM.
